Entries after “also recorded” stand apart in the source; their conditions may differ.

The subject of one series is human neutrophils. In words: Human neutrophil migration (Transwell). The series is classed as cell-based. As for the experimental part: Human peripheral blood neutrophils were isolated from healthy volunteer buffy coats. Initially, the majority of red blood cells were sedimented using 2% w/v dextran sulfate in a 0.9% NaCl solution for 15 min. Next, the upper phase was centrifuged for 10 min at 200g and the supernatant was discarded. The pellet was resuspended in 0.9% NaCl solution, and neutrophils were separated from here using Lymphoprep (STEMCELL Technologies #07851) and density-gradient centrifugation (400g for 30 min). Then, the remaining red blood cells were subjected to hypotonic lysis by addition of 10 mL of sterile water followed by addition of 10 mL of 1.8% NaCl solution. Cell count and viability were determined using trypan blue and a Countess cell counter. […]
Freshly isolated human peripheral neutrophils were used in migration assays using the Boyden style Corning HTS Transwell 96 well system with 3 μm pores (Corning #3385). […] Finally, the number of cells that had migrated to the bottom chamber was assessed using the ATPLite Luminescence assay system (PerkinElmer #6016943) according to the manufacturer’s instructions. Luminescence was measured on an LUMIstar Omega microplate reader (PerkinElmer). Experiments were performed in triplicate and analyzed using GraphPad Prism (version 9). Fold response was calculated as the relative migration of samples compared to the vehicle control.

Series [1] can be described thus: Pharmacokinetic study in mice. In kind it is in vivo. The note with it: male, BALB/cAnC, mouse, plasma. The protocol: The study was performed by Bienta (www.bienta.net). Study design, animal selection, handling, and treatment were all in accordance with the Enamine PK study protocols and Institutional Animal Care and Use Guidelines. Animal treatment and plasma sample preparation were conducted by the Animal Laboratory personnel at Enamine/Bienta. Male BALB/cAnC mice (10–11 weeks old, body weight: 16.0–21.7 g and average body weight across all groups: 19.1 g, SD = 1.2 g) were used in this study. The animals were randomly assigned to the treatment groups before the pharmacokinetic study; all animals were fasted for 4 h before dosing. Intravenous (IV) and peroral (PO) routes of administration were done according to the following; eight time points for each route (3, 7, 15, 30, 60, 120, 240, and 480 min) for the IV route and (5, 10, 15, 30, 60, 120, 240, and 480 min) for the PO route were set for this pharmacokinetic study. Each of the time point treatment group included three animals. There was also one control animal. Compound 16l in the vehicle (DMSO–Cremophor EL–water w/5% mannitol, 1:1:8) was dosed at 10 mg/kg po and 5 mg/kg iv. Dosing volumes of compounds or vehicle were 5 mL/kg. Mice were injected iv with 2,2,2-tribromoethanol at a dose of 150 mg/kg prior to drawing the blood. Blood collection was performed from the orbital sinus in microtainers containing K3EDTA. Animals were sacrificed by cervical dislocation after the blood sample collection. Blood samples were centrifuged for 10 min at 3000 rpm. Before analysis, plasma samples (40 μL) were added 200 μL of a solution with transilast as the internal standard (200 ng/mL in water–methanol mixture 1:9, v/v). After mixing by pipetting and centrifuging for 4 min at 6000 rpm, 0.5 μL of each supernatant was analyzed by HPLC-MS/MS on an API 3000 PE instrument.

What is called AUC(0-inf) is the area under the concentration-time curve extrapolated to infinity. High values mean more exposure, low ones less exposure. Broadly, the Vd is a proportionality between amount in the body and measured concentration, not a real space. A high value points to wide distribution into tissue. Broadly, the half-life is how long it takes for the measured level to halve. Lower therefore signals rapid decline. The bioavailability is dose-corrected exposure relative to a reference, in per cent. Higher therefore signals much systemic uptake. One may read the Cmax as the highest concentration seen after dosing. What is called Tmax is the time from dosing to the highest level. For the molecule `COc1cccc(CC(=O)N[C@@H](Cc2ccc(C(F)(F)F)cc2)Cc2nnn[nH]2)c1` [Compound 16l, (S)-N-(1-(1H-Tetrazol-5-yl)-3-(4-(trifluoromethyl)phenyl)propan-2-yl)-2-(3-methoxyphenyl)acetamide], the “effect on neutrophil migration induced by fMLP” value in the series on human neutrophils (fMLP-induced) was “did not exhibit any effect”. In addition, the “inhibition of propionate-induced neutrophil migration” value in the series with human neutrophils (propionate (C3) 1 mM) was “completely inhibit; also recorded: fully inhibit migration; also recorded: complete inhibition”. In series [1] (iv admin 5 mg/kg), this molecule had an AUC(0-inf) of 7.35 µg·h/mL, a Vd of 0.4 L/kg and a half-life of 24 min. The clearance in series [1] (iv admin 5 mg/kg, read-out: CLtotal) is 0.66 L/h/kg. In addition, the bioavailability in series [1] (po 10 mg/kg vs iv 5 mg/kg) stood at 44%. Moreover, in series [1] (po admin 10 mg/kg), the AUC(0-inf) was 6.48 µg·h/mL, the Cmax is 6.24 µg/mL and the Tmax is 30 min.

Source of the values: article PMC10547238, “Discovery of Potent Tetrazole Free Fatty Acid Receptor 2 Antagonists” (Journal of Medicinal Chemistry, 2023).
